Values after ≈ are worked out from the molar mass of the structure shown.
Key:
[1] = test system: β-lactamase, Pseudomonas aeruginosa GN 238; test: Resistant activity against β-lactamase, iodometric assay; assay type: biochemical; conditions: β-lactamase from Pseudomonas aeruginosa GN 238; Potassium Penicillin G = 100
Protocol: (3) Resistant activity against β-lactamase, Pseudomonas aerugionsa GN 238:
The resistant activity of each compound against β-lactamase was measured in the manner described below.
β-Lactamase was prepared from Pseudomonas aeruginosa GN 238. This microorganism was cultured in 100 ml of a medium containing 2 g of yeast extract, 10 g of polypeptone, 2 g of glucose, 7 g of disodium hydrogen phosphate, 2 g of potassium dihydrogen phosphate, 1.2 g of ammonium sulfate and 0.4 g of magnesium sulfate, per liter, in a 500-ml Erlenmeyer flask for 6 hrs. at 37° C. with shaking. The resulting cells were collected by centrifugation (5,000 r.p.m.×10 min.), washed three times with 0.1 M phosphate buffer (pH 7.0). Subsequently, the cells were subjected to sonication (20 KHz, 20 min.) and then centrifuged at 15,000 r.p.m. for 60 min. By using the supernatant of enzyme fluid, the resistance of each compound against β-lactamase was determined by the iodometric assay method. Each numeral shown in Table 7 is a relative activity value calculated by assuming as 100 the activity of the control Potassium Penicillin G.

[2] = test system: Salmonella typhi-murium; test: MIC against clinical isolates; assay type: cell-based; conditions: Table 5-5, clinical isolate; unit assumed
[3] = test system: Shigella sonnei; test: MIC against clinical isolates; assay type: cell-based; conditions: Table 5-5, clinical isolate; unit assumed
Protocol: (§1) The minimum inhibitory concentration (MIC) was determined by the plate method disclosed in "Chemotherapy" (Japan), Vol. 16, (1968), pages 98-99. The culture medium used was a Heart infusion agar (pH 7.4). The number of the cells per plate used in the inoculum was 10^4 (10^6 cells/ml).
(§2) MIC was determined in the same manner as in the preceding paragraph (1).

[4] = test system: Shigella flexneri; test: MIC against clinical isolates; assay type: cell-based; conditions: Table 5-5, clinical isolate; unit assumed
Protocol: as §1, §2

[5] = test system: Escherichia coli; test: MIC against clinical isolates; assay type: cell-based; conditions: Table 5-2, clinical isolate; unit assumed
[6] = test system: Staphylococcus aureus; test: MIC against clinical isolates; assay type: cell-based; conditions: Table 5-1, clinical isolate; unit assumed
[7] = test system: Pseudomonas aeruginosa I.F.O.; test: MIC, plate method, standard strains; assay type: cell-based; conditions: unit assumed; for MIC Pseudomonas aeruginosa I.F.O.: Table 4, standard strain
Protocol: as §1

[8] = test system: Escherichia coli NIHJ; test: MIC, plate method, standard strains; assay type: cell-based; conditions: unit assumed; for MIC Escherichia coli NIHJ: Table 4, standard strain
Protocol: as §1

[9] = test system: Staphylococcus aureus 209p; test: MIC, plate method, standard strains; assay type: cell-based; conditions: unit assumed
Protocol: as §1

[10] = test system: Proteus vulgaris 3027; test: MIC, plate method, standard strains; assay type: cell-based; conditions: unit assumed
Protocol: as §1

[11] = test system: Klebsiella pneumoniae; test: MIC, plate method, standard strains; assay type: cell-based; conditions: unit assumed
Protocol: as §1

[12] = test system: Pseudomonas aeruginosa; test: MIC against clinical isolates; assay type: cell-based; conditions: unit assumed
[13] = test system: Proteus vulgaris; test: MIC against clinical isolates; assay type: cell-based; conditions: Table 5-6, clinical isolate; unit assumed
[14] = test system: Klebsiella pneumoniae; test: MIC against clinical isolates; assay type: cell-based; conditions: Table 5-4, clinical isolate; unit assumed
[15] = molecular target: β-lactamase, Escherichia freundii GN 346 (Citrobacter freundii, UniProt Q46041); test: Resistant activity against β-lactamase, iodometric assay; assay type: biochemical; conditions: control Cephalorizine = 100
Sequence of β-lactamase, Escherichia freundii GN 346 (Q46041 entry or part of it): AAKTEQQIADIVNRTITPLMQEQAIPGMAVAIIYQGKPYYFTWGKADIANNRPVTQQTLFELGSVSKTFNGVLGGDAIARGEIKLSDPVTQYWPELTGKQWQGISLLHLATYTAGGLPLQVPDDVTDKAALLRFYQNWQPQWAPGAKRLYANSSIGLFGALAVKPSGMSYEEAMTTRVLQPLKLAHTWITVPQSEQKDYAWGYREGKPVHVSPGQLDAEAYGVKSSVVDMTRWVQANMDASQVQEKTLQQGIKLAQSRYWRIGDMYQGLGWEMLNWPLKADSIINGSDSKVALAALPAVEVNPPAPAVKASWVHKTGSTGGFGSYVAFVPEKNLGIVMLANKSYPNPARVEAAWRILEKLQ
Protocol: (§3) (4) Resistant activity of each cephalosporin compound against β-lactamase, Proteus vulgaris GN 76 and Escherichia freundii GN 346:
(§4) The resistant activity of each cephalosporin compound against β-lactamase was measured in the manner described below.
(§5) β-lactamase was prepared from Proteus vulgaris GN 76 and Escherichia freundii GN 346. 10 ml of an overnight culture in Heart Infusion broth was diluted with 100 ml of a medium containing 2 g of yeast extract, 10 g of polypeptone, 2 g of glucose, 7 g of disodium hydrogen phosphate, 2 g of potassium dihydrogen phosphate, 1.2 g of ammonium sulfate and 0.4 g of magnesium sulfate, per liter, and incubated with shaking at 37° C. After incubation of 2 hrs, Penicillin G (50 μg/ml) was added as the inducer, and further incubated for 2 hrs. The resulting cells were collected by centrifugation (5,000 r.p.m.×10 min.) and washed two times with 0.1 M phosphate buffer (pH 7.0). Subsequently, the cells were subjected to sonication (20 KHz, 5 min.) and then centrifuged at 15,000 r.p.m. for 60 min. By using the supernatant of enzyme fluid, the stability of each compound against β-lactamase was determined by the iodometric assay method. Each numeral shown in Table 7-2 is a relative activity value calculated by assuming as 100 the activity of the control Cephalorizine.

[16] = molecular target: T1, β-lactamase, Proteus vulgaris GN 76 (Proteus vulgaris, UniProt P52664); test: as above; assay type: biochemical; conditions: control Cephalorizine = 100
T1 construct: By using the supernatant of enzyme fluid; endogenous in cells; host or cells: Proteus vulgaris GN 76 (penicillin G-induced cells, sonicated, 15,000 r.p.m. supernatant)
T1 sequence (P52664 30-300): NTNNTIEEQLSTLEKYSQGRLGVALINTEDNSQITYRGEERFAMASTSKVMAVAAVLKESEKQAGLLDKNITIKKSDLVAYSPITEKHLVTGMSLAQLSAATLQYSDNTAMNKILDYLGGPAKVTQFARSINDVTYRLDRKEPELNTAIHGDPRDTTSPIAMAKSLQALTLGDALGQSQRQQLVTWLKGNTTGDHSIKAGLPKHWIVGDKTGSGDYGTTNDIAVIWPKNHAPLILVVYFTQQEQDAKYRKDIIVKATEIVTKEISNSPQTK
Protocol: as §3, §4, §5

## CN1CCN(C(=O)NC(C(=O)NC2C(=O)N3C2SC(C)(C)C3C(=O)O)c2ccccc2)C(=O)C1=O (single isomer, unassigned) [Compound 37]
[1]
  Relative activity (%), resistant activity against β-lactamase: 15%
[2]
  MIC Salmonella typhi-murium SL 2136: > 200 µg/mL
[3]
  MIC Shigella sonnei JS 11232: 100 µg/mL (≈ 199 µM)
  MIC Shigella sonnei JS 11755: 6.25 µg/mL (≈ 12.4 µM)
[4]
  MIC Shigella flexneri JS 11215: > 200 µg/mL
  MIC Shigella flexneri JS 11839: 6.25 µg/mL (≈ 12.4 µM)
[5]
  MIC Escherichia coli GN 3435: 3.13 µg/mL (≈ 6.22 µM)
  MIC Escherichia coli GN 3452: 12.5 µg/mL (≈ 24.8 µM)
  MIC Escherichia coli GN 3465: 200 µg/mL (≈ 397 µM)
  MIC Escherichia coli GN 3481: 6.25 µg/mL (≈ 12.4 µM)
  MIC Escherichia coli GN 3611: > 200 µg/mL
  MIC Escherichia coli K-1: 12.5 µg/mL (≈ 24.8 µM)
  MIC Escherichia coli K-2: 6.25 µg/mL (≈ 12.4 µM)
  MIC Escherichia coli K-3: > 200 µg/mL
  MIC Escherichia coli K-4: 3.13 µg/mL (≈ 6.22 µM)
[6]
  MIC Staphylococcus aureus F-1: 12.5 µg/mL (≈ 24.8 µM)
  MIC Staphylococcus aureus F-3: 3.13 µg/mL (≈ 6.22 µM)
  MIC Staphylococcus aureus F-4: 6.25 µg/mL (≈ 12.4 µM)
  MIC Staphylococcus aureus F-5: > 200 µg/mL
  MIC Staphylococcus aureus MS 8588: 3.13 µg/mL (≈ 6.22 µM)
  MIC Staphylococcus aureus MS 8596: 3.13 µg/mL (≈ 6.22 µM)
  MIC Staphylococcus aureus MS 8684: 3.13 µg/mL (≈ 6.22 µM)
  MIC Staphylococcus aureus MS 8713: 12.5 µg/mL (≈ 24.8 µM)
[7]; Table 3, standard strain
  MIC Pseudomonas aeruginosa I.F.C: 6.25 µg/mL (≈ 12.4 µM)
[8]; Table 3, standard strain
  MIC Esche--richin coil NIHJ: < 1.57 µg/mL
[9]; Table 3, standard strain, Heart infusion agar pH 7.4
  MIC Staphylococcus aureus 209p: < 1.57 µg/mL
[10]; Table 3, standard strain
  MIC Proteus vulgaris 3027: < 1.57 µg/mL
[11]; Table 3, standard strain
  MIC Klebsiella pneumoniae: 6.25 µg/mL (≈ 12.4 µM)
[12]; Table 5-3, clinical isolate, strain number not given
  MIC Pseudomonas aeruginosa GN: 50 µg/mL (≈ 99.3 µM)
[12]; Table 5-3, clinical isolate
  MIC Pseudomonas aeruginosa GN 82: 6.25 µg/mL (≈ 12.4 µM)
  MIC Pseudomonas aeruginosa GN 163: 12.5 µg/mL (≈ 24.8 µM)
  MIC Pseudomonas aeruginosa GN 221: 6.25 µg/mL (≈ 12.4 µM)
  MIC Pseudomonas aeruginosa GN 376: 12.5 µg/mL (≈ 24.8 µM)
  MIC Pseudomonas aeruginosa GN 1035: 50 µg/mL (≈ 99.3 µM)
  MIC Pseudomonas aeruginosa GN 1091: 12.5 µg/mL (≈ 24.8 µM)
[12]; Table 5-4, clinical isolate
  MIC Pseudomonas neruginosa S-1: 200 µg/mL (≈ 397 µM)
  MIC Pseudomonas neruginosa S-3: 50 µg/mL (≈ 99.3 µM)
  MIC Pseudomonas neruginosa S-4: 100 µg/mL (≈ 199 µM)
[13]
  MIC Proteus vulgaris: < 0.4 µg/mL
[14]
  MIC Klebsiella pneumoniae GN 917: 12.5 µg/mL (≈ 24.8 µM)
  MIC Klebsiella pneumoniae GN 4081: 200 µg/mL (≈ 397 µM)
  MIC Klebsiella pneumoniae GN 4117: 100 µg/mL (≈ 199 µM)

## CN1CCN(C(=O)NC(C(=O)NC2C(=O)N3C(C(=O)O)=C(CSc4nnnn4C)CSC23)c2ccccc2)C(=O)C1=O (single isomer, unassigned) [Compound No. 63]
[12]; Table 6-3, clinical isolate
  MIC Pseudomonas aeruginosa GN4: 25 µg/mL (≈ 40.6 µM)
  MIC Pseudomonas aeruginosa GN 82: 50 µg/mL (≈ 81.2 µM)
  MIC Pseudomonas aeruginosa GN 376: 50 µg/mL (≈ 81.2 µM)
  MIC Pseudomonas aeruginosa GN 2565: 50 µg/mL (≈ 81.2 µM)
[15]
  Relative activity (%) against β-lactamase, E. freundii GN 346: 0.2%
[16]
  Relative activity (%) against β-lactamase, Pr. vulgaris GN 76: 6%

## CCN1CCN(C(=O)NC(C(=O)NC2C(=O)N3C(C(=O)O)=C(CSc4nnc(C)s4)CSC23)c2ccc(O)cc2)C(=O)C1=O (single isomer, unassigned) [Compound No. 76]
[7]
  MIC Pseudomonas aeruginosa I.F.O.: 50 µg/mL (≈ 75.6 µM)
[8]
  MIC Escherichia coli NIHJ: < 0.4 µg/mL
[9]; Table 4, standard strain
  MIC Staphylococcus aureus 209p: 1.57 µg/mL (≈ 2.37 µM)
[10]; Table 4, standard strain
  MIC Proteus vulgaris 3027: 3.13 µg/mL (≈ 4.73 µM)
[11]; Table 4, standard strain
  MIC Klebsiella pneumoniae: 0.79 µg/mL (≈ 1.19 µM)
[15]
  Relative activity (%) against β-lactamase, E. freundii GN 346: 1%
[16]
  Relative activity (%) against β-lactamase, Pr. vulgaris GN 76: 11%

## CCN1CCN(C(=O)NC(C(=O)NC2C(=O)N3C(C(=O)O)=C(COC(C)=O)CSC23)c2ccc(O)cc2)C(=O)C1=O (single isomer, unassigned) [Compound No. 81]
[7]
  MIC Pseudomonas aeruginosa I.F.O.: 12.5 µg/mL (≈ 21.2 µM)
[8]
  MIC Escherichia coli NIHJ: < 1.57 µg/mL
[9]; Table 4, standard strain
  MIC Staphylococcus aureus 209p: < 1.57 µg/mL
[10]; Table 4, standard strain
  MIC Proteus vulgaris 3027: < 1.57 µg/mL
[11]; Table 4, standard strain
  MIC Klebsiella pneumoniae: < 1.57 µg/mL
[15]
  Relative activity (%) against β-lactamase, E. freundii GN 346: 0.4%
[16]
  Relative activity (%) against β-lactamase, Pr. vulgaris GN 76: 6%
